Consider 7 compounds from patent US20190045783A1, “SUBSTITUTED IMIDAZOLYLCARBOXAMIDES AS PESTICIDES” (BAYER CROPSCIENCE AKTIENGESELLSCHAFT, priority 2016, published 2019).

Series [1] deals with larvae of the mustard beetle (Phaedon cochleariae). Conditions: application rate 500 g/ha, after 7 days, Chinese cabbage leaf discs; 100% = all beetle larvae killed.
Method: Phaedon cochleariae—Spray Test
After 7 days, the efficacy in % is determined. 100% means that all the beetle larvae have been killed; 0% means that no beetle larvae have been killed.
Series [2] has as its system green peach aphids (Myzus persicae). As to the kind of experiment: Myzus persicae oral test. It counts as in vivo. Conditions: application rate 20 ppm, after 5 days, oral, 100% = all aphids killed; for pest or weed control at 20 ppm: Myzus persicae, 120 h, read-out: efficacy in %. Here is the method:
(§1) Solvent: 100 parts by weight of acetone
Subsequently, the plates are sealed with parafilm, which a mixed population of green peach aphids (Myzus persicae) within a second microtitre plate is able to puncture and imbibe the solution through it.
After 5 days, the efficacy in % is determined. 100% means that all the aphids have been killed; 0% means that no aphids have been killed.

The nature of series [3]: log P by HPLC on reversed-phase column (C18), EEC directive 79/831 Annex V.A8. Conditions: for logP [n]: pH 7.8; for chromatographic logP: reversed-phase HPLC column (C18), neutral range, pH 7.8, HPLC C18, 43° C. Type of series: physicochemical.
For series [4], the system named is caterpillars of the armyworm (Spodoptera frugiperda). Conditions: application rate 500 g/ha, after 7 days, maize leaf discs; 100% = all caterpillars killed. Here is the method: Spodoptera Frugiperda—Spray Test
(§2) Emulsifier: alkylaryl polyglycol ether
To produce further test concentrations, the formulation is diluted with emulsifier-containing water.
After 7 days, the efficacy in % is determined. 100% means that all the caterpillars have been killed; 0% means that no caterpillar has been killed.

Series [5] has as its system green peach aphid (Myzus persicae). As to the kind of experiment: Myzus persicae spray test (Chinese cabbage leaf discs). Type of series: in vivo. Conditions: application rate 500 g/ha, after 5-6 days, Chinese cabbage leaf discs, 100% = all aphids killed; for pest or weed control at 500 g/ha: Myzus persicae, foliar, read-out: efficacy in %.
Series [6] deals with engorged adult female cattle ticks (Boophilus microplus). As to the kind of experiment: Boophilus microplus injection test. It counts as in vivo. The note with it: 20 μg/animal, assessed after 7 days, 100% = no tick laid fertile eggs. As to the method: Boophilus microplus—Injection Test
Solvent: dimethyl sulphoxide
To produce a suitable preparation of active compound, 10 mg of active compound are mixed with 0.5 ml of solvent and the concentrate is diluted with solvent to the desired concentration.
1 μl of the active compound solution is injected into the abdomen of 5 engorged adult female cattle ticks (Boophilus microplus). The animals are transferred into dishes and kept in a climate-controlled room.
Efficacy is assessed after 7 days by laying of fertile eggs. Eggs which are not visibly fertile are stored in a climate-controlled cabinet until the larvae hatch after about 42 days. An efficacy of 100% means that none of the ticks has laid any fertile eggs; 0% means that all the eggs are fertile.

Series [7] relates to green peach aphid (Myzus persicae). As to the kind of experiment: Myzus persicae spray test (bell pepper plants). Conditions: application rate 20 ppm, after 6 days, 100% = all aphids killed. It counts as in vivo. Here is the method: Myzus persicae—Spray Test
Solvent: 14 parts by weight of dimethylformamide
as §2
If the addition of ammonium salts or/and penetrants is required, these are each added in a concentration of 1000 ppm to the formulation solution.
Bell pepper plants (Capsicum annuum) severely infested with the green peach aphid (Myzus persicae) are treated by spraying with the active compound formulation in the desired concentration.
After 6 days, the kill in % is determined. 100% means that all of the aphids have been killed; 0% means that none of the aphids have been killed.

Series [8] deals with green peach aphids (Myzus persicae). Description: Myzus persicae oral test (MYZUPE O), comparison with prior art. Type of series: in vivo. The note with it: Myzus persicae, po, 120 h, MYZUPE O, 5 dat, read-out: % efficacy. Here is the method:
Myzus persicae—Oral Test (MYZUPE O)
as §1
50 μl of the active compound preparation are transferred into microtitre plates and made up to a final volume of 200 μl with 150 μl of IPL41 insect medium (33%+15% sugar). Subsequently, the plates are sealed with parafilm, which a mixed population of green peach aphids (Myzus persicae) within a second microtitre plate is able to puncture and imbibe the solution through it.
(§3) After the desired period of time (dat), the efficacy in % is determined. 100% means that all the aphids have been killed; 0% means that no aphids have been killed.

The subject of series [9] is green peach aphid (Myzus persicae). As to the kind of experiment: Myzus persicae spray test (MYZUPE), comparison with prior art. It counts as in vivo. Conditions: Myzus persicae, 120 h; MYZUPE, 100 g of ai/ha, 5 dat; read-out: % efficacy. Here is the method:
Myzus persicae—Spray Test (MYZUPE)
as §2, §3

Series [10] deals with greenhouse red spider mite (Tetranychus urticae). Description: Tetranychus urticae spray test, OP-resistant. The note with it: application rate 500 g/ha, after 6 days, bean leaf discs; 100% = all spider mites killed. It counts as in vivo. Here is the method:
Tetranychus urticae—Spray Test, OP-Resistant
After 6 days, the efficacy in % is determined. 100% means that all the spider mites have been killed; 0% means that no spider mites have been killed.

Where two headings read alike, the source gives them in different places.

Take `CCN(C(=O)c1cnc(C=O)n1C)c1cccnc1` [I-1-039]: the efficacy in % in [1] is given as 100%; in series [2], 100%; in series [4] it was 83%. Further, the “logP [n]” value in series [3] was found to be 0.97.
Consider `CN(C(=O)c1cnc(/C=N/OC(C)(C)C)n1C)c1cccnc1` [I-1-037], for which the efficacy in % in [2] and in series [5] was 100% throughout. Further, in series [3], the “logP [n]” value is reported as 1.99. Also, in series [6], the “efficacy (laying of fertile eggs)” value is recorded as 90%.
`CN(C(=O)c1cnc(C2OCCCO2)n1C)c1cccnc1` [I-1-006]: the pest or weed control at 20 ppm in [2] amounted to 100%. In addition, the “kill in % (efficacy)” value in series [7] turned out to be 98%. In addition, the chromatographic logP in [3] (Table 1, read-out: logP [n]) amounted to 0.92. In series [8], the Emax at 0.8 ppm was 100% and the Emax at 4 ppm was 100%.
As for `CN(C(=O)c1cnc(C(=O)NCC#N)n1C)c1cccnc1` [I-1-076], the pest or weed control at 20 ppm in series [2] was 100%. Moreover, the pest or weed control at 500 g/ha in series [5] turned out to be 100%. For the same compound, the chromatographic logP in series [3] (Table 1, read-out: logP [n]) stood at 0.78. Besides, the Emax at 100 g/ha in series [9] came to 90%. Besides, in [8], the Emax at 0.8 ppm came to 90% and the Emax at 4 ppm amounted to 90%. The efficacy in % in [10] was 90%.
As to `CN(C(=O)c1cnc(/C=N/OCC2CC2)n1C)c1cccnc1` [I-1-008, 2-[(E)-(Cyclopropylmethoxyimino)methyl]-N,1-dimethyl-N-(pyridin-3-yl)-1H-imidazole-5-carboxamide], the pest or weed control at 20 ppm in series [2] was 100%. Besides, the pest or weed control at 500 g/ha in series [5] was found to be 100%. In addition, the chromatographic logP in series [3] (preparation examples, read-out: log P[n]) was 1.78. Besides, the efficacy in % in series [10] turned out to be 90%.
Regarding `CN(C(=O)c1cnc(/C=N/OCC(F)(F)F)n1C)c1cccnc1` [I-1-031], the efficacy in % is 100% in series [2] and 90% in series [5]. The “logP [n]” value in [3] was determined as 1.68. Also, the “efficacy (laying of fertile eggs)” value in series [6] is given as 80%.
Consider `CN(C(=O)c1cnc(/C=N/OCc2ccc(Cl)cc2)n1C)c1cccnc1` [I-1-010], for which the efficacy in % in series [2], in [5] and in series [10] was 90% in each case. The “logP [n]” value in series [3] was determined as 2.43.
